Test results: patent publication US8865230B2, “Compositions and methods for treating parasitic infections” (TyraTech, Inc., priority 2006, dated 2014)

Columns and labels:
[1] = target: T1, Tyramine receptor (TyrR) (Drosophila melanogaster, UniProt P22270); assay: Effect on intracellular Ca2+ in cells expressing TyrR (Example 14); format: cell-based
T1 construct: expressed in transfected cells
T1 sequence (P22270 27-601): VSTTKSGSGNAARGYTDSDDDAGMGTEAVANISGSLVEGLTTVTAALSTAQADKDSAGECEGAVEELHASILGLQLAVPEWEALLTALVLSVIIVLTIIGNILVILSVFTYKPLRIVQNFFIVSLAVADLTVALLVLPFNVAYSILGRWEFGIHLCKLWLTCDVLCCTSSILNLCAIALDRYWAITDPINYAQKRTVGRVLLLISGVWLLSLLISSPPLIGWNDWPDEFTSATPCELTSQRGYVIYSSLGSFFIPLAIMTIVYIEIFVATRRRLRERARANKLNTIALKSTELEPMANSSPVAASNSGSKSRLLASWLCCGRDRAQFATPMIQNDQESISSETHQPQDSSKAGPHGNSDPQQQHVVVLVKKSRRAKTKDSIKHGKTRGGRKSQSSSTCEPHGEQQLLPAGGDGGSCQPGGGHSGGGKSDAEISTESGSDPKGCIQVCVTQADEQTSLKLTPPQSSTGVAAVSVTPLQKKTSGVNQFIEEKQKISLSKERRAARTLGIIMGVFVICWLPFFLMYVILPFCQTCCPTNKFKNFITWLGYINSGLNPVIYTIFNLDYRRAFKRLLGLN

[2] = target: T1, Tyramine receptor (TyrR); assay: Effect on intracellular cAMP in cells expressing TyrR (Example 14); format: cell-based
[3] = test system: Hymenolepis nana; assay: H. nana in vivo, infected mice treated orally with single test agents Rx (Example 1); details: 400 mg/kg orally daily for 5 days
[4] = target: T1, Tyramine receptor (TyrR); assay: Tyramine receptor binding affinity in cells expressing TyrR (Example 14)

Effects Intracellular Ca2+ (Yes or No) [1] | Effects Intracellular cAMP (Yes or No) [2] | Tyramine Receptor Binding Affinity (High or Low) [4] | Compound | Egg Count (X ± SD), During Treatment 1st Day [3] | Egg Count (X ± SD), During Treatment 3rd Day [3]
 |  |  | Cc1ccc(C(C)C)cc1O [Rx 4, carvacrol] | 5 ± 0.6 | 1 ± 1.9
Yes | Yes |  | CC(C)=CCC/C(C)=C/CO [Rx 5, geraniol] | 14 ± 13.9 | 
Yes | Yes |  | CC12CCC(CC1)C(C)(C)O2 [Rx 6, cineol] | 5 ± 9.5 | 1 ± 1.2
Yes | Yes | Low | CC=Cc1ccc(OC)cc1 [anethole] |  | 
No | Yes |  | OCc1ccccc1 [benzyl alcohol] |  | 
Yes | No |  | OCC=Cc1ccccc1 [cinnamyl alcohol] |  | 
Yes | Yes and No |  | C=C(C)[C@H]1CC=C(C)CC1 [d-limonene] |  | 
Yes | No | high | C=CC(C)(O)CCC=C(C)C (stereo not shown) [linalool] |  | 
Yes | Yes | low | Cc1ccc(C(C)C)cc1 [p-cymene] |  | 
No | Yes |  | CCC(=O)OCCc1ccccc1 [phenethyl proprionate] |  | 
Yes | Yes |  | CCC(C)(O)CCCC(C)C (stereo not shown) [tetrahydrolinalool] |  | 

Compound | Effects Intracellular Ca2+ (Yes or No) [1] | Effects Intracellular cAMP (Yes or No) [2] | Tyramine Receptor Binding Affinity (High or Low) [4] | Egg Count (X ± SD), During Treatment 1st Day [3] | Egg Count (X ± SD), During Treatment 3rd Day [3]
C=CCc1ccc(O)c(OC)c1 [Eugenol] | Yes | No |  |  | 
CCCCCCCCCCCCOS(=O)(=O)[O-].[Na+] [sodium lauryl sulfate] | No | No |  |  | 
Cc1ccc(C(C)C)c(O)c1 [thymol] | Yes | No | high |  | 
CC1=CCC2CC1C2(C)C (stereo not drawn) [α-pinene] | No | No |  |  | 
